# Bridge positions count the residues as written; N and C are the ends. Square brackets hold non-standard residues; d marks the D form. Peptide text beside a SMILES is read from it. * marks the point of attachment. Lauroyl = CCCCCCCCCCCC(=O)*; Decanoyl = CCCCCCCCCC(=O)*; dOrn = NCCC[C@@H](N)C(=O)O; Octanoyl = CCCCCCCC(=O)*; Orn = NCCC[C@H](N)C(=O)O
# What was measured:
# Klebsiella pneumoniae = experiment: Antibacterial activity against Klebsiella pneumoniae ATCC 700603 incubated for 18 to 24 hrs by broth microdilution method; assay type: functional; settings: time 18-24 hrs
# Bacillus subtilis = experiment: Antibacterial activity against Bacillus subtilis ATCC 23857 incubated for 18 to 24 hrs by broth microdilution method; assay type: functional; settings: time 18-24 hrs
# Enterococcus faecalis = experiment: Antibacterial activity against Enterococcus faecalis ATCC 29212 incubated for 18 to 24 hrs by broth microdilution method; assay type: functional; settings: time 18-24 hrs
# [1] = test system: Staphylococcus epidermidis; experiment: Antibacterial activity against Staphylococcus epidermidis ATCC 12228 incubated for 18 to 24 hrs by broth microdilution method; assay type: functional; settings: time 18-24 hrs
# Escherichia coli = experiment: Antibacterial activity against Escherichia coli ATCC 25922 incubated for 18 to 24 hrs by broth microdilution method; assay type: functional; settings: time 18-24 hrs
# Acinetobacter baumannii = experiment: Antibacterial activity against Acinetobacter baumannii ATCC 19606 incubated for 18 to 24 hrs by broth microdilution method; assay type: functional; settings: time 18-24 hrs
# Staphylococcus aureus = experiment: Antibacterial activity against Staphylococcus aureus ATCC 25923 incubated for 18 to 24 hrs by broth microdilution method; assay type: functional; settings: time 18-24 hrs
# Pseudomonas aeruginosa = experiment: Antibacterial activity against Pseudomonas aeruginosa ATCC 27853 incubated for 18 to 24 hrs by broth microdilution method; assay type: functional; settings: time 18-24 hrs
# Erythrocyte = experiment: Hemolytic activity in mouse red blood cell assessed as hemolysis incubated for 1 hr; assay type: toxicity, cell-based
MIC (Klebsiella pneumoniae),MIC (Bacillus subtilis),MIC (Enterococcus faecalis),MIC [1],MIC (Escherichia coli),MIC (Acinetobacter baumannii),MIC (Staphylococcus aureus),MIC (Pseudomonas aeruginosa),SMILES,MHC (Erythrocyte)
8 µM,32 µM,64 µM,32 µM,4 µM,8 µM,64 µM,4 µM,CCC(C)CCC(=O)N[C@H](CC(N)=O)C(=O)N[C@H](Cc1ccc(O)cc1)C(=O)N[C@H](Cc1c[nH]c2ccccc12)C(=O)N[C@H](CCCCN)C(=O)N[C@@H](CCCCN)C(=O)NCC(=O)N[C@H](CCCCN)C(=O)N[C@@H](Cc1c[nH]c2ccccc12)C(=O)N[C@@H]1C(=O)N[C@@H]([C@@H](C)CC)C(=O)NCC(=O)N[C@@H](CO)C(=O)O[C@@H]1C (stereo not given in full),128 µM
8 µM,16 µM,64 µM,8 µM,4 µM,32 µM,64 µM,4 µM,CCC(C)CCC(=O)N[C@H](CC(N)=O)C(=O)N[C@H](Cc1ccc(O)cc1)C(=O)N[C@H](Cc1c[nH]c2ccccc12)C(=O)N[C@H](CCN)C(=O)N[C@@H](CCN)C(=O)NCC(=O)N[C@H](CCN)C(=O)N[C@@H](Cc1c[nH]c2ccccc12)C(=O)N[C@@H]1C(=O)N[C@@H]([C@@H](C)CC)C(=O)NCC(=O)N[C@@H](CO)C(=O)O[C@@H]1C (stereo not given in full),128 µM
16 µM,16 µM,64 µM,16 µM,8 µM,16 µM,32 µM,8 µM,CCCCCCCCCC(=O)N[C@H](CCCN)C(=O)N[C@H](Cc1ccc(O)cc1)C(=O)N[C@H](Cc1c[nH]c2ccccc12)C(=O)N[C@H](CCCN)C(=O)N[C@@H](CCCN)C(=O)NCC(=O)N[C@H](CCCN)C(=O)N[C@@H](Cc1c[nH]c2ccccc12)C(=O)N[C@@H]1C(=O)N[C@@H]([C@@H](C)CC)C(=O)NCC(=O)N[C@@H](CO)C(=O)O[C@@H]1C,128 µM
2 µM,4 µM,> 128 µM,16 µM,8 µM,16 µM,32 µM,1 µM,CCC(C)CCC(=O)N[C@H](CCCN)C(=O)N[C@H](Cc1ccc(O)cc1)C(=O)N[C@H](Cc1c[nH]c2ccccc12)C(=O)N[C@H](CCCN)C(=O)N[C@@H](CCCN)C(=O)N[C@@H](CCCN)C(=O)N[C@H](CCCN)C(=O)N[C@@H](Cc1c[nH]c2ccccc12)C(=O)N[C@@H]1C(=O)N[C@@H]([C@@H](C)CC)C(=O)NCC(=O)N[C@@H](CO)C(=O)O[C@@H]1C (stereo not given in full),128 µM
2 µM,4 µM,32 µM,4 µM,2 µM,2 µM,16 µM,2 µM,CCCCCCCCCC(=O)N[C@H](CC(N)=O)C(=O)N[C@H](Cc1ccc(O)cc1)C(=O)N[C@H](Cc1c[nH]c2ccccc12)C(=O)N[C@H](CCCN)C(=O)N[C@@H](CCCN)C(=O)NCC(=O)N[C@H](CCCN)C(=O)N[C@@H](Cc1c[nH]c2ccccc12)C(=O)N[C@@H]1C(=O)N[C@@H]([C@@H](C)CC)C(=O)NCC(=O)N[C@@H](CO)C(=O)O[C@@H]1C (Decanoyl-[dN][dY][dW][dOrn][Orn]G[dOrn]WTIGS; ester 9-C),8 µM
8 µM,4 µM,16 µM,4 µM,8 µM,4 µM,16 µM,2 µM,CCCCCCCCCCCC(=O)N[C@H](CC(N)=O)C(=O)N[C@H](Cc1ccc(O)cc1)C(=O)N[C@H](Cc1c[nH]c2ccccc12)C(=O)N[C@H](CCCN)C(=O)N[C@@H](CCCN)C(=O)NCC(=O)N[C@H](CCCN)C(=O)N[C@@H](Cc1c[nH]c2ccccc12)C(=O)N[C@@H]1C(=O)N[C@@H]([C@@H](C)CC)C(=O)NCC(=O)N[C@@H](CO)C(=O)O[C@@H]1C (Lauroyl-[dN][dY][dW][dOrn][Orn]G[dOrn]WTIGS; ester 9-C),4 µM
4 µM,8 µM,64 µM,16 µM,2 µM,4 µM,32 µM,2 µM,CCCCCCCC(=O)N[C@H](CC(N)=O)C(=O)N[C@H](Cc1ccc(O)cc1)C(=O)N[C@H](Cc1c[nH]c2ccccc12)C(=O)N[C@H](CCCN)C(=O)N[C@@H](CCCN)C(=O)NCC(=O)N[C@H](CCCN)C(=O)N[C@@H](Cc1c[nH]c2ccccc12)C(=O)N[C@@H]1C(=O)N[C@@H]([C@@H](C)CC)C(=O)NCC(=O)N[C@@H](CO)C(=O)O[C@@H]1C (Octanoyl-[dN][dY][dW][dOrn][Orn]G[dOrn]WTIGS; ester 9-C),64 µM
16 µM,8 µM,32 µM,16 µM,16 µM,8 µM,16 µM,8 µM,CCC(C)CCC(=O)N[C@H](CC(N)=O)C(=O)N[C@H](Cc1ccc(-c2ccccc2)cc1)C(=O)N[C@H](Cc1c[nH]c2ccccc12)C(=O)N[C@H](CCCN)C(=O)N[C@@H](CCCN)C(=O)NCC(=O)N[C@H](CCCN)C(=O)N[C@@H](Cc1c[nH]c2ccccc12)C(=O)N[C@@H]1C(=O)N[C@@H]([C@@H](C)CC)C(=O)NCC(=O)N[C@@H](CO)C(=O)O[C@@H]1C (mixture of isomers),8 µM
32 µM,16 µM,> 128 µM,8 µM,16 µM,32 µM,> 128 µM,2 µM,CCC(C)CCC(=O)N[C@H](CC(N)=O)C(=O)N[C@H](C)C(=O)N[C@H](Cc1c[nH]c2ccccc12)C(=O)N[C@H](CCCN)C(=O)N[C@@H](CCCN)C(=O)NCC(=O)N[C@H](CCCN)C(=O)N[C@@H](Cc1c[nH]c2ccccc12)C(=O)N[C@@H]1C(=O)N[C@@H]([C@@H](C)CC)C(=O)NCC(=O)N[C@@H](CO)C(=O)O[C@@H]1C (mixture of isomers),128 µM
16 µM,32 µM,> 128 µM,16 µM,32 µM,32 µM,128 µM,4 µM,CCC(C)CCC(=O)N[C@H](CC(N)=O)C(=O)N[C@H](Cc1ccc(O)cc1)C(=O)N[C@H](Cc1c[nH]c2ccccc12)C(=O)N[C@H](CN)C(=O)N[C@@H](CN)C(=O)NCC(=O)N[C@H](CN)C(=O)N[C@@H](Cc1c[nH]c2ccccc12)C(=O)N[C@@H]1C(=O)N[C@@H]([C@@H](C)CC)C(=O)NCC(=O)N[C@@H](CO)C(=O)O[C@@H]1C (mixture of isomers),128 µM
8 µM,8 µM,32 µM,16 µM,8 µM,8 µM,32 µM,4 µM,CCC(C)CCC(=O)N[C@H](CC(N)=O)C(=O)N[C@H](Cc1ccc2ccccc2c1)C(=O)N[C@H](Cc1c[nH]c2ccccc12)C(=O)N[C@H](CCCN)C(=O)N[C@@H](CCCN)C(=O)NCC(=O)N[C@H](CCCN)C(=O)N[C@@H](Cc1c[nH]c2ccccc12)C(=O)N[C@@H]1C(=O)N[C@@H]([C@@H](C)CC)C(=O)NCC(=O)N[C@@H](CO)C(=O)O[C@@H]1C (mixture of isomers),8 µM
16 µM,8 µM,32 µM,16 µM,16 µM,8 µM,16 µM,8 µM,CCC(C)CCC(=O)N[C@H](CC(N)=O)C(=O)N[C@H](Cc1ccc(C(C)(C)C)cc1)C(=O)N[C@H](Cc1c[nH]c2ccccc12)C(=O)N[C@H](CCCN)C(=O)N[C@@H](CCCN)C(=O)NCC(=O)N[C@H](CCCN)C(=O)N[C@@H](Cc1c[nH]c2ccccc12)C(=O)N[C@@H]1C(=O)N[C@@H]([C@@H](C)CC)C(=O)NCC(=O)N[C@@H](CO)C(=O)O[C@@H]1C (mixture of isomers),16 µM
4 µM,16 µM,64 µM,2 µM,4 µM,8 µM,64 µM,4 µM,CCC(C)CCC(=O)N[C@H](CC(N)=O)C(=O)N[C@H](Cc1ccc(O)cc1)C(=O)N[C@H](Cc1c[nH]c2ccccc12)C(=O)N[C@H](CCCNC(=N)N)C(=O)N[C@@H](CCCNC(=N)N)C(=O)NCC(=O)N[C@H](CCCNC(=N)N)C(=O)N[C@@H](Cc1c[nH]c2ccccc12)C(=O)N[C@@H]1C(=O)N[C@@H]([C@@H](C)CC)C(=O)NCC(=O)N[C@@H](CO)C(=O)O[C@@H]1C (mixture of isomers),128 µM
8 µM,8 µM,64 µM,16 µM,8 µM,8 µM,32 µM,4 µM,CCC(C)CCC(=O)N[C@H](CC(N)=O)C(=O)N[C@H](Cc1ccc(C)cc1)C(=O)N[C@H](Cc1c[nH]c2ccccc12)C(=O)N[C@H](CCCN)C(=O)N[C@@H](CCCN)C(=O)NCC(=O)N[C@H](CCCN)C(=O)N[C@@H](Cc1c[nH]c2ccccc12)C(=O)N[C@@H]1C(=O)N[C@@H]([C@@H](C)CC)C(=O)NCC(=O)N[C@@H](CO)C(=O)O[C@@H]1C (mixture of isomers),32 µM
16 µM,16 µM,> 128 µM,64 µM,8 µM,32 µM,128 µM,4 µM,CCC(C)CCC(=O)N[C@H](CC(N)=O)C(=O)N[C@H](Cc1ccc(N)cc1)C(=O)N[C@H](Cc1c[nH]c2ccccc12)C(=O)N[C@H](CCCN)C(=O)N[C@@H](CCCN)C(=O)NCC(=O)N[C@H](CCCN)C(=O)N[C@@H](Cc1c[nH]c2ccccc12)C(=O)N[C@@H]1C(=O)N[C@@H]([C@@H](C)CC)C(=O)NCC(=O)N[C@@H](CO)C(=O)O[C@@H]1C (mixture of isomers),128 µM
